In patent publication US5468756A, “Imidazonaphthyridine derivatives” (Kyowa Hakko Kogyo Co., Ltd., priority 1990, dated 1995):
pIC50: −log10 of the molar value.

Legend:
[1] = system: carrageenin-induced paw edema; assay: Effect on carrageenin-induced paw edema; type: in vivo, male Wistar rats; conditions: Rattus norvegicus, 3 hours after carrageenin, read-out: Suppression rate for paw swelling, carrageenin-induced edema; for inhibition in vivo at 100 mg/kg: p.o.; for inhibition in vivo at 50 mg/kg: po, 50 mg/kg P.O.
Protocol: a) Effect on carrageenin-induced paw edema
(§1) Male Wistar rats weighing 150 to 160 g (n=3-5) were used in the experiment. After the right hind paw volume was measured with the plethysmograph (TK-101; Unicom Co., Ltd.), the test compound (25, 50 or 100 mg/kg) was orally administered. After one hour, 0.1 ml of 1% carrageenin (λ-carrageenin; PICNIN-A®, Zushi Kagaku Co., Ltd.) was subcutaneously injected into the right hind paw footpad. Three hours after the injection of carrageenin, the right hind paw volume was measured and the swelling rate was determined by the following equation 1. [formula] Vt: the right hind paw volume measured 3 hours after the injection of carrageenin
(§2) Vo: the right hind paw volume measured prior to the injection of carrageenin
(§3) The suppression rate was calculated by the following equation 2. [formula] Swt: the swelling rate of the group administered with the test compound Swc: the swelling rate of the control group administered with physiological saline solution

[2] = system: zymosan-induced paw edema; assay: Effect on zymosan-induced paw edema; type: in vivo, male Wistar rats; conditions: Rattus norvegicus, po, read-out: Suppression rate for paw swelling, zymosan-induced edema; for inhibition in vivo at 25 mg/kg: 25 mg/kg P.O.
Protocol: as §1, §2, §3
b) Effect on zymosan-induced paw edema
The experiment was carried out in the same manner as in the carrageenin-induced paw edema test except that 1% zymosan (Zymosan A®; Sigma Chemical Co.) was used in place of 1% carrageenin and the right hind paw volume was measured […] the injection of the edema-inducing substance instead of 3 hours. The swelling rate and the suppression rate were calculated by equation 1 and equation 2, respectively.

[3] = system: Type III allergic reaction-induced pleurisy; assay: Effect on Type III allergic reaction-induced pleurisy; type: in vivo, male Wistar rats; conditions: 100 mg/kg orally; rats; 4.5 h after induction of pleurisy
Protocol: c) Effect on Type III allergic reaction-induced pleurisy
1. Preparation of IgG fraction of rabbit anti-egg white albumin (anti-OA)
IgG was purified from rabbit anti-OA serum prepared in advance by the method of Koda et al. [Folia Pharmacol., Japon 66, 237, (1970)] in the following manner.
A saturated solution of ammonium sulfate (half volume of the serum) was added to the anti-OA serum, and the mixture was left for one hour at 4° C. The precipitate was taken by centrifugation (3,000 rpm, 30 min. 4° C.) and dissolved in phosphate buffer of Dulbecco. Then, ammonium sulfate fractionation was carried out three times in the same manner as above, whereby a purified IgG fraction was obtained.
2. Type III allergic reaction-induced pleurisy
Male Wistar rats weighing 225-250 g were pre-bred for several days and fasted overnight prior to the experiment. The test compound (100 mg/kg) was orally administered to the animals, and after 30 minutes, a solution of IgC of rabbit anti-OA (0.2 ml, 5 mg protein/ml) was injected into the pleural cavity of the animals from the right side of thorax under anesthesia with ether. Thirty minutes after the injection of IgG, OA (albumin egg grade III; Sigma Chemical Co.) was intravenously injected into the animals as an inducer of pleurisy. After two hours, Evans Blue (25 mg/kg) was intravenously injected, and four and a half hours after the induction of pleurisy, the animals were killed by bleeding.
Then, an exudate in the pleural cavity was obtained, and the volume of the exudate was measured. The pleural cavity was rinsed with 5 ml of physiological saline and the rinsings were added to the exudate. The number of infiltrated cells in the mixture was counted and the volume of the dye in the mixture was determined by the absorption at 625 nm [Agent Actions., 25, 326 (1988)]. The suppression rates for the volume of the exudate, the number of infiltrated cells and the volume of the dye in the pleural cavity were calculated by the following equation 3. [formula] […]

[4] = system: passive Schultz-Dale reaction; assay: Effect on passive Schultz-Dale reaction (broncho-dilative activity), sensitized tracheal strips contracted by antigen; set-up: species or system male Hartley guinea pigs; conditions: guinea pig tracheal zig-zag strips, 37° C., antigen egg white albumin 1 μg/ml; read-out: Passive Schultz-Dale reaction IC50 (concentration of 50% relaxation rate)
Protocol: d) Effect on passive Schultz-Dale reaction (broncho-dilative activity)
Male Hartley guinea pigs weighing 350 to 500 g were passively sensitized by intraperitoneal injection of rabbit anti-OA serum prepared in advance by the method of Koda et al. [Folia Pharmacol., Japon 66, 237, (1970)]. After 24 hours, the guinea pigs were stunned and exsanguinated, and then tracheae were removed. The zig-zag strips of the tracheae were prepared by the method of Emmerson and Mackay [J. Pharm. Pharmacol., 31, 798, (1979)]. The strips were suspended in Krebs-Henseleit solution at 37° C. under aeration of a mixed gas of 95% oxygen and 5% carbon dioxide, and equilibrated for one hour. Then, antigen (egg white albumin) was introduced in the solution (final concentration; 1 μg/ml), and the contraction was measured by isotonictransducer (TD-112s, made by Nihon Kohden K.K., Japan) and recorded on a recorder (Type 3066, made by Yokogawa-Hokushin Denki, K.K. Japan). After the contraction curves reached a plateau, the test compounds were successively added in order to get cumulative concentration-relaxation curves. The concentration of 50% relaxation rate (IC50) was calculated from the regression line, which was obtained from the cumulative concentration-relaxation curves.

[5] = system: platelet activating factor (PAF)-induced mortality; assay: Inhibition effect on platelet activating factor (PAF)-induced mortality; type: in vivo, male dd mice; conditions: Mus musculus, po, PAF 40 μg/kg i.v., 3 h, n = 10, control group survival 0-20%, read-out: Survival rate of test compound-administered group
Protocol: e) Inhibition effect on platelet activating factor (PAF)-induced mortality
The experiment was carried out by a minor modification of a known method [Br. J. Pharmacol., 79, 595 (1983)]. Groups each consisting of 10 male dd mice (weighing 28 to 32 g) were used, and 50 or 100 mg/kg of the test compound or a saline (control) was orally administered. One hour after the administration of test compound, 40 μg/kg of PAF (manufactured by Avanti Polar Lipids Co., Ltd.) was intravenously administered. Three hours after PAF injection, the mortality of the animals was observed.

ddY strain male mice = assay: Acute toxicity (Minimum Lethal Dose); type: in vivo
Protocol: The test compound was orally and intraperitoneally administered to ddY strain male mice weighing 20 to 25 g. MLD (Minimum Lethal Dose) was determined by observing the mortality for […] after the administration.

Row | SMILES | inhibition in vivo at 100 mg/kg [1] [%] | inhibition in vivo at 100 mg/kg [2] [%] | Suppression rate, number of infiltrated cells in the exudate [3] [%] | Suppression rate, volume of dye in the exudate [3] [%] | Suppression rate, volume of exudate [3] [%] | pIC50 [4] | responders at 100 mg/kg [5] [%] | MLD (Minimum Lethal Dose) i.p. (ddY strain male mice) [mg/kg] | MLD (Minimum Lethal Dose) p.o. (ddY strain male mice) [mg/kg] | inhibition in vivo at 25 mg/kg [2] [%] | inhibition in vivo at 50 mg/kg [1] [%]
1 | CCCCn1c(=O)c2ncn(C)c2c2cccnc21 [Compound 1, 5-(n-Butyl)-1-methyl-1H-imidazo[4,5-c][1,8]naphthyridin-4(5H)-one] | 40.1 | 38.8 | 84.1 | 80.3 | 100 | 4.92 | 90 |  |  |  | 
2 | CCn1cnc2c3cccnc3n(-c3ccccc3)c(=O)c21 [Compound 8, 3-Ethyl-5-phenyl-3H-imidazo[4,5-c][1,8]naphthyridin-4(5H)-one] | 56.1 | 64.9 |  |  |  | 6.35 | 70 | > 50 | > 50 |  | 
3 | CCCn1cnc2c3cccnc3n(-c3ccccc3)c(=O)c21 [Compound 9, 5-Phenyl-3-n-propyl-3H-imidazo[4,5-c][1,8]naphthyridin-4(5H)-one] | 52.4 |  |  |  |  | 5.19 | 100 | > 100 | > 100 | 61.2 | 
4 | CC(C)n1cnc2c3cccnc3n(-c3ccccc3)c(=O)c21 [Compound 10, 3-Isopropyl-5-phenyl-3H-imidazo[4,5-c][1,8]naphthyridin-4(5H)-one] | 43.1 | 53 |  |  |  | 5.22 | 80 | > 100 | > 100 |  | 
5 | CCCCn1cnc2c3cccnc3n(-c3ccccc3)c(=O)c21 [Compound 11, 3-n-Butyl-5-phenyl-3H-imidazo[4,5-c][1,8]naphthyridin-4(5H)-one] | 56.4 |  |  |  |  | < 5.00 | 100 | > 100 | > 200 | 55.5 | 
6 | CC(C)Cn1cnc2c3cccnc3n(-c3ccccc3)c(=O)c21 [Compound 12, 3-Isobutyl-5-phenyl-3H-imidazo[4,5-c][1,8]naphthyridin-4(5H)-one] | 48.5 |  |  |  |  | 5.07 | 100 | > 50 | > 200 | 69.7 | 
7 | O=c1c2c(ncn2Cc2ccccc2)c2cccnc2n1-c1ccccc1 [Compound 13, 3-Benzyl-5-phenyl-3H-imidazo[4,5-c][1,8]naphthyridin-4(5H)-one] | 58.1 | 65.1 |  |  |  | 5.89 | 90 | > 100 | > 300 |  | 
8 | CC(=O)Cn1cnc2c3cccnc3n(-c3ccccc3)c(=O)c21 [Compound 14, 3-(2-Oxopropyl)-5-phenyl-3H-imidazo[4,5-c][1,8]naphthyridin-4(5H)-one] | 44 |  |  |  |  | 5.24 | 100 | > 100 | > 100 | 53.7 | 
9 | O=c1c2c(ncn2CCc2ccccc2)c2cccnc2n1-c1ccccc1 [Compound 15, 3-Phenethyl-5-phenyl-3H-imidazo[4,5-c][1,8]naphthyridin-4(5H)-one] | 5.2 |  |  |  |  | 5.09 | 50 | > 100 | > 300 | 25.7 | 
10 | CCCCn1c(=O)c2c(ncn2CCC)c2cccnc21 [Compound 29, 5-n-Butyl-3-n-propyl-3H-imidazo[4,5-c][1,8]naphthyridin-4(5H)-one] | 56.1 |  |  |  |  | 6.54 | 100 | > 100 | > 100 | 21.1 | 
11 | CCOCCn1cnc2c3cccnc3n(-c3ccccc3)c(=O)c21 [Compound 31, 3-(Ethoxyethyl)-5-phenyl-3H-imidazo[4,5-c][1,8]naphthyridin-4(5H)-one] | 60.6 |  |  |  |  | 6.89 | 90 | > 100 | > 300 | 57.4 | 
12 | C=CCn1cnc2c3cccnc3n(-c3ccccc3)c(=O)c21 [Compound 33, 3-(2-propenyl)-5-phenyl-3H-imidazo[4,5-c][1,8]naphthyridin-4(5H)-one] |  |  |  |  |  | 8.15 | 100 | > 100 | > 300 | 67.3 | 67.8
13 | CC(=O)OCCn1cnc2c3cccnc3n(-c3ccccc3)c(=O)c21 [Compound 34, 3-(2-Acetoxyethyl)-5-phenyl-3H-imidazo[4,5-c][1,8]naphthyridin-4(5H)-one] |  |  |  |  |  | 6.17 | 70 | > 100 | > 300 | 41.6 | 42.2
14 | O=c1c2c(ncn2Cc2ccc(F)cc2)c2cccnc2n1-c1ccccc1 [Compound 44, 3-(4-Fluorophenyl)methyl-5-phenyl-3H-imidazo[4,5-c][1,8]naphthyridin-4(5H)-one] | 42.8 |  |  |  |  | 5.18 | 50 | > 50 | > 300 | 63.9 | 
